Experiment [1] addresses T1, CCL17 (Homo sapiens, UniProt Q92583).
T1 construct: codes for the mature CCL17 or CCL22 with an N-terminal thioredoxin-hexahistidin (TRX- (His)6) tag; thioredoxin (TRX) (N, cleaved yes); (His)6 (N, cleaved yes); made in house; host or cells: E. coli BL21 (DE3)
T1 sequence (Q92583 24-94): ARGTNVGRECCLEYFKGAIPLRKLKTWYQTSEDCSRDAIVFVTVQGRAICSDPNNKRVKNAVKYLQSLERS
Nature of the experiment: Scratch wound assay, CCL17-mediated HaCat cell migration. Particulars: HaCat cells, 72 h, read-out: inhibition of CCL17-mediated wound closure. The class given is cell-based. As to the method:
soluble formazan dye which can be detected by absorbance at 420-480nm. HUT78 T cells (or HaCat cells) were seeded on 24-well plates (200,000 cells per well) and were incubated […]
concentration ≤1% on cells). The background control was reserved as one well containing the culture medium only. The plates were incubated for 72h at 37°C. Three days later, the medium containing the neutraligands was removed, and WST-1 reagent (1:10 final dilution) (Ozyme) was added to each well for a 2h incubation at 37°C as the manufacturer’s recommendation. The plates were shaken and absorbance was measured at 450nm (reference wavelength 690nm) against the background control, using a multiwell plate reader (EnVision, Perkin Elmer). Assays were performed as three independent replicates.
In vitro cell migration assay (scratch wound test) […]
the wound closure was determined as the difference between wound width at times 0 and 72h. […]
doses). After 24h, cytotoxicity was evaluated in the wells using the Alamar Blue method. […]
before AA treatment. The activity of COX2 was determined by measuring PGE2 (Cayman) in the supernatants by EIA. […]

Experiment [2] has as its target T2, COX2 (Homo sapiens, UniProt P35354).
T2 construct: endogenous in cells; host or cells: primary human monocytes treated with LPS
Description: COX2 mediated PGE2 release in LPS-treated primary monocytes. It is filed as cell-based. Particulars: 100 µM, monocytes + LPS + arachidonic acid. As to the method:
the wound closure was determined as the difference between wound width at times 0 and 72h. This experiment was repeated three times.
Human primary monocytes were isolated from buffy coats of healthy human blood donors and seeded in 24-well plates (500,000 cells/ml in 1ml) for COX-1/2 activity or 96-well plates for cell viability experiments.
Cells were seeded in 96 well plates (5,000 cells/well in 200µl) for cytotoxicity testing (Alamar […]
doses). After 24h, cytotoxicity was evaluated in the wells using the Alamar Blue method. NaF (250µg/ml) was used as a control in this experiment.
Cyclooxygenase (COX) activity
COX1 mediated prostaglandin E2 (PGE2) release. Monocytes were treated with arachidonic […]
were then collected for the determination of PGE2 by enzyme immunoassay (EIA) […]
COX2 mediated prostaglandin E2 (PGE2) release. Monocytes were incubated with LPS (10U/ml) for 24h to induce COX2 protein synthesis. After renewal of medium (serum free), […]
before AA treatment. The activity of COX2 was determined by measuring PGE2 (Cayman) in the supernatants by EIA. Aspirin (10µM) and diclofenac (10µM) were used as control […]
NaF (250µg/ml) was used as a control (relative light unit, r.l.u). (c) Monocytes were treated […]
GPN136 (grey bars). The activity of COX1 was determined by measuring prostaglandin E2 (PGE2). […]
of COX2 was determined by measuring PGE2. […]

T2 sequence (P35354 18-604): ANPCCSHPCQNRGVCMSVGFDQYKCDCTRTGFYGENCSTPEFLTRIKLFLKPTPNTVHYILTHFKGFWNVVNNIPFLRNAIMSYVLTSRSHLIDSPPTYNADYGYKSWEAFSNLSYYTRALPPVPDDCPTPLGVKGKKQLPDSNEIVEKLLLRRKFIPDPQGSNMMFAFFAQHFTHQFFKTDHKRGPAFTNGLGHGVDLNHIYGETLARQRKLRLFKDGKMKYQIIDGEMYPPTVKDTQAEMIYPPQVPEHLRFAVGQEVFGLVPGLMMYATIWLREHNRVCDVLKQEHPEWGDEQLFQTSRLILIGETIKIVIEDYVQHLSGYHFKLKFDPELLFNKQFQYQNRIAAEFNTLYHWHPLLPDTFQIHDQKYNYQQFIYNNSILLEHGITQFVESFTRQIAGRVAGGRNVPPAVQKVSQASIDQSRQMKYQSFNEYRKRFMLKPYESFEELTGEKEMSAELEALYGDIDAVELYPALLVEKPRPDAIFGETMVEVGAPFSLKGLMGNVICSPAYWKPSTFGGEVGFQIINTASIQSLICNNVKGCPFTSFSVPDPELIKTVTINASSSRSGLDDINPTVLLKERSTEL

For the compound `CC(C)=CCn1cnc2c1c(=O)n(C)c(=O)n2C` [GPN279, 1,3-dimethyl-7-(3-methylbut-2-enyl)-1H-purine-2,6(3H, 7H)-dione], the inhibition (as a rule, the relative decrease from the control value, in per cent) at 10 µM in experiment [1] is 81.4%. The “effect on COX2 activity (PGE2)” value in experiment [2] is recorded as “no effect”.

(Values after article PMC4595804, “A strategy to discover decoy chemokine ligands with an anti-inflammatory activity” (Scientific Reports, 2015).)
